Here are results for 23 compounds from patent publication US9926304B2, “1-(arylmethyl)quinazoline-2,4(1H,3H)-diones as PARP inhibitors and the use thereof” (Impact Therapeutics, Inc., priority 2011, dated 2018).

Assay [1] deals with BRCA-2 deficient CAPAN-1 human pancreatic cancer cells. The assay is described as follows: MTT based cell viability assay: growth inhibition of BRCA-2 deficient CAPAN-1 cells. The note with it: 240 h, compound alone, 10 day assay. An excerpt:
Determination of the cell growth inhibiting activity of 1-(3-(4-(pyrimidin-2-yl)piperazine-1-carbonyl)benzyl)quinazoline-2,4(1H,3H)-dione and analogs on BRCA-2 deficient CAPAN-1 pancreatic duck cancer cells using a MTT based cell viability assay
BRCA-deficient cancer cells are sensitive to PARP inhibition. In the presence of PARP inhibitors, BRCA-deficient cancer cells could not grow and eventually will lead to death of cells. BRCA-2 deficient CAPAN-1 human pancreatic cancer cells were used to test the growth inhibiting activity of substituted 1-(arylmethyl)quinazoline-2,4(1H,3H)-diones. Briefly, CAPAN-1 cells are grown and maintained in IMEM medium supplemented with 20% FBS. The assay takes 10 days to finish. On day 1, 6000 CAPAN-1 cells are seeded to each well of a 96-well plate. The cells are incubated at 37° C. in a cell culture incubator overnight. In the next day, serial dilutions of compounds to be tested and reference compound (AZD2281) were prepared with a 1:3 and 1:10 fashion in DMSO. Ten-fold compound solutions were made by mixing 10 μl DMSO serial dilution solutions with 90 μl fresh growth medium. The cell culture medium was removed and 180 μl fresh media with FBS and 20 μl of compound solutions were added to each well. The final concentration of DMSO was 1%. Cells were then returned to the CO2 cell culture incubator and incubated at 37° C. for two days (day 3 and day 4). On day 5, the same procedure as what was done on day 2 was repeated. Cell culture medium was removed and fresh medium containing serial dilutions of compounds or reference compounds were added. Cells were returned to the CO2 cell culture incubator and incubated for two more days. On day 8, same procedure was repeated again and fresh medium containing the testing compounds or reference compounds were added and incubated for an additional 2 days. On day 10, 20 μl of MTT reagent (5 mg/ml) was added to each well of the cell culture plate and incubated for 4 h. The cell culture media was removed and 100 μl DMSO was added to each well. The 96-well cell culture plates were shaked horizontally for 10 min and readed in a Varioskan Flash plate reader (Thermo Fisher Scientific) at 520 and 690 nm. The obtained 520 nm absorbance readings subtracting corresponding 690 nm reading were analyzed using a commercial graphic software (GraphPad Prism 5) and plotted against the Log scale of the compound concentrations.

Assay [2] deals with SW620 human colorectal cancer cells. The assay is described as follows: MTT based cell viability assay: potentiation of the growth inhibiting activity of MMS.
The test system of assay [3] is Human breast cancer cell line T47D. Kind of assay: Cell based caspase-3 activity assay: potentiation of MMS induced apoptosis. As to conditions: T47D cells, 11.1 μg/ml MMS, 24 hours, intracellular caspase-3 activity, read-out: EC50 (nM), potentiation of the apoptosis inducing activity of MMS. In a few lines:
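T47D cells were exposed for 24 h to compound plus a minimally apoptotic MMS dose (medium containing 11.1 μg/ml MMS). Lysates were incubated 3 h at 37 °C with (Ac-DEVD)2-R110 caspase-3 substrate (20 μM in added buffer) and read at ex 496/em 520 nm. EC50 came from a sigmoidal fit of RFU versus log concentration.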

Setting [4] is: Homo sapiens, SW-620, 120 h, read-out: IC50 (nM), potentiation of the growth inhibiting activity of MMS, SW620 cells, 1.7 μg/ml MMS, 5 days (120 hours), MTT.
The mark [5] stands for this setting: read-out: IC50 (nM), potentiation of the growth inhibiting activity of MMS, SW620 cells, 1.7 μg/ml MMS, 5 days (120 hours), MTT.

Like-named read-outs stand apart in the source and are kept apart here.

On to `O=C(c1cc(Cn2c(=O)[nH]c(=O)c3cc(F)ccc32)ccc1F)N1CCN(c2nccs2)CC1` [Example 188, 6-Fluoro-1-(4-fluoro-3-(4-(thiazol-2-yl)piperazine-1-carbonyl)benzyl)quinazoline-2,4(1H,3H)-dione], for which the IC50 in assay [1] was 472 nM; in assay [2] (setting [4]) it was 7.8 nM.

For the compound `COc1ccc2c(c1)c(=O)[nH]c(=O)n2Cc1cccc(C(=O)N2CCN(c3ncccn3)CC2)c1` [Example 204, 6-Methoxy-1-(3-(4-(pyrimidin-2-yl)piperazine-1-carbonyl)benzyl)quinazoline-2,4(1H,3H)-dione], the EC50 in assay [3] (Homo sapiens, T47D, 24 h) was above 10000 nM. For the same compound, the IC50 in assay [2] (setting [4]) was above 10000 nM.

Consider `O=C(c1cccc(Cn2c(=O)[nH]c(=O)c3ccc(C(F)(F)F)cc32)c1)N1CCN(c2ncccn2)CC1` [Example 206, 1-(3-(4-(Pyrimidin-2-yl)piperazine-1-carbonyl)benzyl)-7-(trifluoromethyl)quinazoline-2,4(1H,3H)-dione], for which, in assay [3] (Homo sapiens, T47D, 24 h), the EC50 was above 10000 nM. The IC50 in assay [2] (setting [4]) was above 10000 nM.

`O=C(c1cccc(Cn2c(=O)[nH]c(=O)c3cc4c(cc32)OCCO4)c1)N1CCN(c2ncccn2)CC1` [Example 207, 6,7-Ethylenedioxo-1-(3-(4-(pyrimidin-2-yl)piperazine-1-carbonyl)benzyl)quinazoline-2,4(1H,3H)-dione]: the EC50 in assay [3] was above 10000 nM. Further, in assay [2] (setting [5]), the IC50 is above 10000 nM.

`COc1ccc(C(=O)N2CCN(c3ncccn3)CC2)cc1Cn1c(=O)[nH]c(=O)c2c(F)cccc21` [Example 208, 5-Fluoro-1-(6-methoxy-3-(4-(pyrimidin-2-yl)piperazine-1-carbonyl)benzyl)quinazoline-2,4(1H,3H)-dione]: the EC50 in assay [3] (Homo sapiens, T47D, 24 h) came out at 24 nM. The IC50 in assay [2] (setting [4]) worked out at 37 nM.

Turning to `COc1ccc2c(=O)[nH]c(=O)n(Cc3cccc(C(=O)N4CCN(c5ncccn5)CC4)c3)c2c1` [Example 209, 7-Methoxy-1-(3-(4-(pyrimidin-2-yl)piperazine-1-carbonyl)benzyl)quinazoline-2,4(1H,3H)-dione], the EC50 in assay [3] (Homo sapiens, T47D, 24 h) is 294 nM. In addition, the IC50 in assay [2] (setting [4]) is 103 nM.

As to `O=C(c1cc(Cn2c(=O)[nH]c(=O)c3c(F)cccc32)ccc1[N+](=O)[O-])N1CCN(c2ncccn2)CC1` [Example 211, 5-Fluoro-1-(4-nitro-3-(4-(pyrimidin-2-yl)piperazine-1-carbonyl)benzyl)quinazoline-2,4(1H,3H)-dione], the EC50 in assay [3] (Homo sapiens, T47D, 24 h) was found to be 166 nM. The IC50 in assay [2] (setting [4]) came to 145 nM.

Turning to `O=C(c1cc(Cn2c(=O)[nH]c(=O)c3c(F)cccc32)ccc1F)N1CCN(c2ccccc2)CC1` [Example 213, 5-Fluoro-1-(4-fluoro-3-(4-phenylpiperazine-1-carbonyl)benzyl)quinazoline-2,4(1H,3H)-dione], the EC50 in assay [3] (Homo sapiens, T47D, 24 h) was determined as 590 nM. Also, the IC50 in assay [2] (setting [4]) turned out to be 58 nM.

`O=C(c1cc(Cn2c(=O)[nH]c(=O)c3c(F)cccc32)ccc1F)N1CCC(c2ccccc2)CC1` [Example 214, 5-Fluoro-1-(4-fluoro-3-(4-phenylpiperidine-1-carbonyl)benzyl)quinazoline-2,4(1H,3H)-dione]: the EC50 in assay [3] (Homo sapiens, T47D, 24 h) amounted to 654 nM. For the same compound, in assay [2] (setting [4]), the IC50 stood at 517 nM.

As to `O=C(c1cc(Cn2c(=O)[nH]c(=O)c3c(F)cccc32)ccc1Br)N1CCN(c2ncccn2)CC1` [Example 215, 1-(4-Bromo-3-(4-(pyrimidin-2-yl)piperazine-1-carbonyl)benzyl)-5-fluoroquinazoline-2,4(1H,3H)-dione], the EC50 in assay [3] (Homo sapiens, T47D, 24 h) is 743 nM. In assay [2] (setting [4]), the IC50 turned out to be 1390 nM.

With `O=C(c1cccc(Cn2c(=O)[nH]c(=O)c3cc4c(cc32)OCO4)c1)N1CCN(c2ncccn2)CC1` [Example 216, 6,7-Methylenedioxo-1-(3-(4-(pyrimidin-2-yl)piperazine-1-carbonyl)benzyl)quinazoline-2,4(1H,3H)-dione], in assay [3], the 50% effective concentration (EC50) is above 10000 nM. In assay [2] (setting [5]), the IC50 is above 10000 nM.

As for `O=C(c1cccc(Cn2c(=O)[nH]c(=O)c3cccc(F)c32)c1)N1CCN(c2ncccn2)CC1` [Example 218, 8-Fluoro-1-(3-(4-(pyrimidin-2-yl)piperazine-1-carbonyl)benzyl)quinazoline-2,4(1H,3H)-dione], the concentration giving a half-maximal response (EC50) in assay [3] (Homo sapiens, T47D, 24 h) worked out at 37 nM. The IC50 in assay [2] (setting [4]) was found to be 103 nM.

In the case of `Nc1ccc2c(c1)c(=O)[nH]c(=O)n2Cc1cccc(C(=O)N2CCN(c3ncccn3)CC2)c1` [Example 219, 6-Amino-1-(3-(4-(pyrimidin-2-yl)piperazine-1-carbonyl)benzyl)quinazoline-2,4(1H,3H)-dione], the EC50 in assay [3] (Homo sapiens, T47D, 24 h) is 445 nM. The IC50 in assay [2] (setting [4]) came to 481 nM.

`O=C(c1ccccc1Cn1c(=O)[nH]c(=O)c2ccccc21)N1CCN(c2ncccn2)CC1` [Example 220, 1-(2-(4-(Pyrimidin-2-yl)piperazine-1-carbonyl)benzyl)quinazoline-2,4(1H,3H)-dione]: in assay [3] (Homo sapiens, T47D, 24 h), the EC50 was above 10000 nM. In assay [2] (setting [4]), the IC50 was above 10000 nM.

With `O=C(c1cccc(-n2c(=O)[nH]c(=O)c3ccccc32)c1)N1CCN(c2ncccn2)CC1` [Example 221, 1-(3-(4-(Pyrimidin-2-yl)piperazine-1-carbonyl)phenyl)quinazoline-2,4(1H,3H)-dione], the EC50 in assay [3] (Homo sapiens, T47D, 24 h) was above 10000 nM. Besides, the IC50 in assay [2] (setting [4]) is above 10000 nM.

In the case of `O=C(c1cccc(Cn2c(=O)[nH]c3c(Cl)cccc3c2=O)c1)N1CCN(c2ncccn2)CC1` [Example 223, 8-Chloro-3-(3-(4-(pyrimidin-2-yl)piperazine-1-carbonyl)benzyl)quinazoline-2,4(1H,3H)-dione], the EC50 in assay [3] (Homo sapiens, T47D, 24 h) is above 10000 nM. Also, the IC50 in assay [2] (setting [4]) was above 10000 nM.

Regarding `O=C(c1cccc(Cn2c(=O)[nH]c(=O)c3cccc(Cl)c32)c1)N1CCN(c2ncccn2)CC1` [Example 224, 8-Chloro-1-(3-(4-(pyrimidin-2-yl)piperazine-1-carbonyl)benzyl)quinazoline-2,4(1H,3H)-dione], the EC50 in assay [3] (Homo sapiens, T47D, 24 h) worked out at 274 nM. The IC50 in assay [2] (setting [4]) turned out to be 1110 nM.

Turning to `Cc1cccc2c(=O)n(Cc3cccc(C(=O)N4CCN(c5ncccn5)CC4)c3)c(=O)[nH]c12` [Example 225, 8-Methyl-3-(3-(4-(pyrimidin-2-yl)piperazine-1-carbonyl)benzyl)quinazoline-2,4(1H,3H)-dione], the EC50 in assay [3] (Homo sapiens, T47D, 24 h) was above 10000 nM. The IC50 in assay [2] (setting [4]) was above 10000 nM.

As for `Cc1cccc2c(=O)[nH]c(=O)n(Cc3cccc(C(=O)N4CCN(c5ncccn5)CC4)c3)c12` [Example 226, 8-Methyl-1-(3-(4-(pyrimidin-2-yl)piperazine-1-carbonyl)benzyl)quinazoline-2,4(1H,3H)-dione], the EC50 in assay [3] (Homo sapiens, T47D, 24 h) was found to be 24 nM. For the same compound, in assay [2] (setting [4]), the IC50 turned out to be 84 nM.

As for `COc1cccc2c(=O)[nH]c(=O)n(Cc3cccc(C(=O)N4CCN(c5ncccn5)CC4)c3)c12` [Example 227, 8-Methoxy-1-(3-(4-(pyrimidin-2-yl)piperazine-1-carbonyl)benzyl)quinazoline-2,4(1H,3H)-dione], in assay [3] (Homo sapiens, T47D, 24 h), the half-maximal effective concentration (EC50) was 40 nM. The IC50 in assay [2] (setting [4]) came out at 13 nM.

Turning to `O=C(c1cccc(Cn2c(=O)[nH]c3ccccc3c2=O)c1)N1CCN(c2ncccn2)CC1` [Example 228, 3-(3-(4-(Pyrimidin-2-yl)piperazine-1-carbonyl)benzyl)quinazoline-2,4(1H,3H)-dione], the EC50 in assay [3] (Homo sapiens, T47D, 24 h) was above 10000 nM. Further, the IC50 in assay [2] (setting [4]) is above 10000 nM.

As to `O=C(c1cccc(CCn2c(=O)[nH]c(=O)c3ccccc32)c1)N1CCN(c2ncccn2)CC1` [Example 229, 1-(3-(4-(Pyrimidin-2-yl)piperazine-1-carbonyl)phenethyl)quinazoline-2,4(1H,3H)-dione], the EC50 in assay [3] (Homo sapiens, T47D, 24 h) was above 10000 nM. Besides, in assay [2] (setting [4]), the IC50 was above 10000 nM.

Regarding `O=C(c1cccc(Cn2c(=O)[nH]c(=O)c3cccc(O)c32)c1)N1CCN(c2ncccn2)CC1` [Example 230, 8-Hydroxy-1-(3-(4-(pyrimidin-2-yl)piperazine-1-carbonyl)benzyl)quinazoline-2,4(1H,3H)-dione], in assay [3] (Homo sapiens, T47D, 24 h), the EC50 came out at 3.2 nM. In assay [2] (setting [4]), the IC50 amounted to 2.6 nM.
